Among the data in ChEMBL document CHEMBL1201862, “PubChem BioAssay data set” (2004) are EC50, IC50 and AC50 values, retold here.

Test [1] has as its target Voltage-dependent T-type calcium channel subunit alpha-1H (Homo sapiens, UniProt O95180). Description: Cav3.2 T-type channel blockers, cell-based, SynthLib3 library, HEK293 Cav3.2, fluorescence (AID 493041). Format: functional.
Test [2] deals with T1, Voltage-gated N-type calcium channel alpha-1B subunit/Amyloid beta A4 precursor protein-binding family A member 1 (Homo sapiens, UniProt Q00975+Q02410). Description: disruptors of Mint-PDZ/N-type channel peptide interaction – biochemical, HTRF, set 2, SAR follow-up (AID 434980). Format: functional. On the technique in general: In TR-FRET formats the signal depends on donor and acceptor labels being close together.

In test [3] the target is T1, Voltage-gated N-type calcium channel alpha-1B subunit/Amyloid beta A4 precursor protein-binding family A member 1. Description: disruptors of Mint-PDZ/N-type channel peptide interaction – biochemical, HTRF, SAR follow-up (AID 2489). Format: functional.
For another test, the target named is SUMO E1/E2 (Homo sapiens, UniProt P63279+Q9UBE0+Q9UBT2). Description: SAR analysis of SUMOylation using HTRF in an in-Vitro dose response assay. [Related pubchem assays (depositor defined):AID2006, AID2011, AID2018, AID2069, AID2658]. It counts as functional.
Test [4] concerns the target Metabotropic glutamate receptor 2 (Rattus norvegicus, UniProt P31421). Description: rat mGluR2 glutamate potency shift by compounds, selectivity assay for mGluR4 modulator project, cell-based (AID 2188). It counts as functional.
Test [5] deals with Metabotropic glutamate receptor 1 (Rattus norvegicus, UniProt P23385). Description: Modulation of the Metabotropic Glutamate Receptor mGluR4: Selectivity at mGluR1. [Related pubchem assays (depositor defined):AID2437, AID2807]. It counts as functional.
The target in test [6] is Metabotropic glutamate receptor 8 (Rattus norvegicus, UniProt P70579). The test is described as follows: Modulation of the Metabotropic Glutamate Receptor mGluR4: Selectivity at mGluR8. [Related pubchem assays (depositor defined):AID2437, AID2807]. It counts as functional.
Test [7] concerns the target Metabotropic glutamate receptor 3 (Rattus norvegicus, UniProt P31422). The test is described as follows: Modulation of the Metabotropic Glutamate Receptor mGluR4: Selectivity at mGluR3. [Related pubchem assays (depositor defined):AID2437, AID2807]. It counts as functional.
Test [8] has as its target Metabotropic glutamate receptor 6 (Homo sapiens, UniProt O15303). The test is described as follows: Modulation of the Metabotropic Glutamate Receptor mGluR4: Selectivity at mGluR6. [Related pubchem assays (depositor defined):AID2437, AID2807]. Format: functional.
In test [9] the target is T2, Mannose-6-phosphate isomerase (Homo sapiens, UniProt P34949).
T2 sequence (P34949 whole entry): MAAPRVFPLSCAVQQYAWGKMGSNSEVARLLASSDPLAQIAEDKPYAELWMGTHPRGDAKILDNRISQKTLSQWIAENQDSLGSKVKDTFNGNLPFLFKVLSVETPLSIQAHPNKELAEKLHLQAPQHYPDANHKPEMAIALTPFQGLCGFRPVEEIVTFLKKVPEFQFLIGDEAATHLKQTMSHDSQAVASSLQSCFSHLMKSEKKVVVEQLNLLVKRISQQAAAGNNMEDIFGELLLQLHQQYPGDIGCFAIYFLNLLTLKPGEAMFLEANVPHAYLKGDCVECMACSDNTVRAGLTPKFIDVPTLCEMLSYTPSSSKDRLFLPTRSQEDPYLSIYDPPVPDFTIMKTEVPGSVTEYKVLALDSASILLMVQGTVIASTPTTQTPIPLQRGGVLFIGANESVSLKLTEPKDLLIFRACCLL
The test is described as follows: inhibitors of human PMI, primary screen, biochemical, fluorescence intensity, coupled assay (AID 1209).

For another test, the system named is INS1. Description: beta cell apoptosis inhibitors, cytokine rescue, dose response, luminescence, retest (AID 449756).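 Note: cell death triggered by IL-1 beta plus TNF-alpha plus IFN-gamma mixture; protective hits raise ATP signal compared with cytokine alone wells.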 Conditions: Rattus norvegicus. It counts as functional, cell-based.
The nature of test [10]: NIH-3T3 fibroblast cytotoxicity, dose response, cytotoxicity control, cell-based, fluorescence, Alamar Blue, secondary assay (AID 2327).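 Note: NIH-3T3 mouse fibroblasts cultured with fluconazole at 8 µg/mL.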 Format: functional. (The colour change of resazurin is a common sign of viable cells or microbes.)
Test [11] in a line: insulin promoter down-regulators in MIN6 cells, imaging, high-content screening, mouse beta cells (AID 1628). It counts as functional.
Test [12] in a line: growth suppression of PTEN-null colon cells, dose response, cell-based, HCT116 PTEN knockout (AID 1047).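 Note: HCT116 colon tumor cells with PTEN knocked out; cells exposed to compound for 60 hours before readout; potency for loss of cell viability measured by luminescence.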 Format: functional.
Test [13] in a line: C. albicans growth with fluconazole, confirmation, fluorescence, retest (AID 2467). Format: functional, cell-based.
Test [14] is described as follows: Luminescence-based counterscreen assay for KLF5 inhibitors: dose response cell-based high throughput screening assay to identify cytotoxic compounds using the IEC-6 intestinal epithelial cell line. [Related pubchem assays: 1700 (Primary screen.), 1834 (Confirmation screen.), 1858 (Summary AID.), 1905 (Counterscreen.)]. Format: functional. On the technique in general: Counterscreens check selectivity or assay interference.

Another test addresses Nonstructural protein 1 (Influenza A virus, UniProt Q194T2). Format: functional, Influenza A virus (A/California/07/2009(H1N1)).
A short description of test [15]: cytotoxicity in MIN6 insulinoma cells, dose response, cytotoxicity control, cell-based, mouse insulinoma (AID 2122).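 Note: confirmatory high-throughput counterscreen run to flag cytotoxic compounds; mouse MIN-6 beta cells carrying an insulin promoter eGFP reporter.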 It counts as functional.
The nature of test [16]: inhibitors of intracellular T. cruzi replication, confirmation, NIH3T3 host cells, beta-gal luminescence (AID 2044).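 Note: intracellular parasites grown in NIH/3T3 mouse fibroblasts as host cells; luminescent beta-galactosidase reporter signal from transgenic T. cruzi replicating inside host cells; inhibitors lower the luminescence signal.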 Format: functional, cell-based.
Test [17] is described as follows: cytotoxicity toward NIH3T3 fibroblasts, dose response, counter-screen, cell-based, ATP luminescence, mouse fibroblasts (AID 2010).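 Note: cells exposed to compound for about 90 hours before reading.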 It counts as functional.
A short description of test [18]: MDA-MB-231 cell growth inhibition, dose response, cytotoxicity control for RAD54 inhibitor project, CellTiter-Glo luminescence, cherry-pick (AID 651692). It counts as functional, cell-based.
A short description of test [19]: growth suppression of beta-catenin-knockout colon cells, dose response, cell-based, HCT116, human colon tumor (AID 1045).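 Note: HCT116 colon tumor cells with beta catenin knocked out; cells exposed to compound for 60 hours.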 It counts as functional.
In test [20] the target is T3, DNA repair and recombination protein RAD54-like (Homo sapiens, UniProt Q92698).
T3 sequence (Q92698 whole entry): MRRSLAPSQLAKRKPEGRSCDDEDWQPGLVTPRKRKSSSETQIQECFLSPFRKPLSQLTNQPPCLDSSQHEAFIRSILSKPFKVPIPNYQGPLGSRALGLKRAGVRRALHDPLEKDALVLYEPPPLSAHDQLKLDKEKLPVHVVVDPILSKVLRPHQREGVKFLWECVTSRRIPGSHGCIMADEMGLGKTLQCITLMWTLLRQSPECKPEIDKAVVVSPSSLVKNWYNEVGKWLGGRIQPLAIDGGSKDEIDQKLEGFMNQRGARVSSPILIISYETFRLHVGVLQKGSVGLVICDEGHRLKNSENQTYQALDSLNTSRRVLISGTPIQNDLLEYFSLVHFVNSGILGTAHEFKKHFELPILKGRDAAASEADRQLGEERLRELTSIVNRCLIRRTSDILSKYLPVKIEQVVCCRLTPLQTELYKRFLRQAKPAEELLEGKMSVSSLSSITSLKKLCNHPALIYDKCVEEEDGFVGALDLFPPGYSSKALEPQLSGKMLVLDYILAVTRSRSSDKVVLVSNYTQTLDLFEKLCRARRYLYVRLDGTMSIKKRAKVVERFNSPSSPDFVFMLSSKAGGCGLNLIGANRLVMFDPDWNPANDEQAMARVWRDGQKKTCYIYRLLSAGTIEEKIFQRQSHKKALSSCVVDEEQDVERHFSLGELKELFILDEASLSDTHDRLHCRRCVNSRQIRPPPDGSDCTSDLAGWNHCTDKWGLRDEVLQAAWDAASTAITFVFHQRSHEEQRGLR
The test is described as follows: inhibitors of human RAD54 branch migration, confirmation, biochemical, fluorescence, cherry-picked samples, dose series (AID 651657). It counts as functional.

Usually EC50 stands for the concentration at which the effect is half-maximal. Usually IC50 stands for the concentration that inhibits the measured activity by half. Usually AC50 stands for the concentration at which the activity in the assay is half-maximal.

The structures appear in SMILES notation. Several values for one entry are separate records, joined by “and”; a condition that tells them apart may be missing. Identical values can stand only once. Activity calls are given as the source filed them.

T1 sequence (Q00975 whole entry): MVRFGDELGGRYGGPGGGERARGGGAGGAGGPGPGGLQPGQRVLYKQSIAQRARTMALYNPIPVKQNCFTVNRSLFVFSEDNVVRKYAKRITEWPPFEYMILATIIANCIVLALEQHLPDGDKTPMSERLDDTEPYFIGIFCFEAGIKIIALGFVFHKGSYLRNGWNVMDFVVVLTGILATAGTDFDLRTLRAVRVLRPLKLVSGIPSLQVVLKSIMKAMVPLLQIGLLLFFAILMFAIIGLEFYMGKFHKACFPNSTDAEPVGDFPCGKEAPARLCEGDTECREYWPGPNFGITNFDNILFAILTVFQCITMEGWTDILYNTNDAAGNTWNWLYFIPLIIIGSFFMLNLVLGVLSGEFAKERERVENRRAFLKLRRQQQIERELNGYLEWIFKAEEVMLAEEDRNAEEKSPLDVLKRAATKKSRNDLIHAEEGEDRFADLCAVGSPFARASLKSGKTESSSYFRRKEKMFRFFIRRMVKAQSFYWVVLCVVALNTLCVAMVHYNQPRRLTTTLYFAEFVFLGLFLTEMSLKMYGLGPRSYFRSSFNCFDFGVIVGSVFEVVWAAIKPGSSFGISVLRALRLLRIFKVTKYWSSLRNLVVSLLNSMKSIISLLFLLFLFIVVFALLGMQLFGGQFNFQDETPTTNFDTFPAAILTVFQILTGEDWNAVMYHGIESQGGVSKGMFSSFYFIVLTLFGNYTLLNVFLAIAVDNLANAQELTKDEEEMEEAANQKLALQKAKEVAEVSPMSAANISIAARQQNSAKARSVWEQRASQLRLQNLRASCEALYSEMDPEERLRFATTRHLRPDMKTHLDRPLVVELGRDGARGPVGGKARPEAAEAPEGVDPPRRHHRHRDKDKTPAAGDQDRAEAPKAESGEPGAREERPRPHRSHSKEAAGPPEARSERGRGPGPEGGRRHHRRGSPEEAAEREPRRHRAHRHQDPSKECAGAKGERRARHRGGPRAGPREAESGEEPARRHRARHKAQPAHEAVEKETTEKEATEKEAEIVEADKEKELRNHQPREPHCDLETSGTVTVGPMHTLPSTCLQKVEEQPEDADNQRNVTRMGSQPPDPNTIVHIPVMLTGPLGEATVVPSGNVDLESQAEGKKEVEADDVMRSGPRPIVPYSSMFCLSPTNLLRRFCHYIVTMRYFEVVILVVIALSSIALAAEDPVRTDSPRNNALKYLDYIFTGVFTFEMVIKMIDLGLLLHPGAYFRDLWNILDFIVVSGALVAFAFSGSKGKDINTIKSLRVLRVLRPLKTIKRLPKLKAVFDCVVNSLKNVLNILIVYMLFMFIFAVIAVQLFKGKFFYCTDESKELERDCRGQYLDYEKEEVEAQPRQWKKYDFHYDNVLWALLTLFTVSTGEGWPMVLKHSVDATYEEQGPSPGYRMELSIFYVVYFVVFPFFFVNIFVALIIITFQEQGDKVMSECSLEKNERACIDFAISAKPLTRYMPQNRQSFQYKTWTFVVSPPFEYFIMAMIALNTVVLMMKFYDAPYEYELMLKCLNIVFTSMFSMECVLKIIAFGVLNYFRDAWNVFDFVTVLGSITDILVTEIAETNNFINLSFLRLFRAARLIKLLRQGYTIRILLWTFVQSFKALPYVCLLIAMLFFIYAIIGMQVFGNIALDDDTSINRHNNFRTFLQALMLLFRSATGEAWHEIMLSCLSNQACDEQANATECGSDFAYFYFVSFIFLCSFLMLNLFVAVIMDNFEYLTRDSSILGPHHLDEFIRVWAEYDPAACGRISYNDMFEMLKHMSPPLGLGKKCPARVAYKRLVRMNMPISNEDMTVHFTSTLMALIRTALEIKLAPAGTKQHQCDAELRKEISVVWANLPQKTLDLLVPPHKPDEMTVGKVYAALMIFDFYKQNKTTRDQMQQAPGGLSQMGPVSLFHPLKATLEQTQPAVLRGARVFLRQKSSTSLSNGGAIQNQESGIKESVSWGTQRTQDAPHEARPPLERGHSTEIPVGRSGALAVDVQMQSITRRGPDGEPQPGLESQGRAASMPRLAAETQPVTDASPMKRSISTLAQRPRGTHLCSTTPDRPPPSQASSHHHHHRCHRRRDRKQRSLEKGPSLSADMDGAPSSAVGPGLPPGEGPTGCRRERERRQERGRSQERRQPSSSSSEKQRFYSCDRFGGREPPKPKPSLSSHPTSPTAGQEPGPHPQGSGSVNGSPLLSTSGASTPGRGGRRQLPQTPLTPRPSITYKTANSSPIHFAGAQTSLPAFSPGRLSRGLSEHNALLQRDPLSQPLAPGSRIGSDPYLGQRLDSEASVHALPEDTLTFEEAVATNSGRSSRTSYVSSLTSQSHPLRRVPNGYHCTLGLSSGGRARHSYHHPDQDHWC
T1 sequence (Q02410 whole entry): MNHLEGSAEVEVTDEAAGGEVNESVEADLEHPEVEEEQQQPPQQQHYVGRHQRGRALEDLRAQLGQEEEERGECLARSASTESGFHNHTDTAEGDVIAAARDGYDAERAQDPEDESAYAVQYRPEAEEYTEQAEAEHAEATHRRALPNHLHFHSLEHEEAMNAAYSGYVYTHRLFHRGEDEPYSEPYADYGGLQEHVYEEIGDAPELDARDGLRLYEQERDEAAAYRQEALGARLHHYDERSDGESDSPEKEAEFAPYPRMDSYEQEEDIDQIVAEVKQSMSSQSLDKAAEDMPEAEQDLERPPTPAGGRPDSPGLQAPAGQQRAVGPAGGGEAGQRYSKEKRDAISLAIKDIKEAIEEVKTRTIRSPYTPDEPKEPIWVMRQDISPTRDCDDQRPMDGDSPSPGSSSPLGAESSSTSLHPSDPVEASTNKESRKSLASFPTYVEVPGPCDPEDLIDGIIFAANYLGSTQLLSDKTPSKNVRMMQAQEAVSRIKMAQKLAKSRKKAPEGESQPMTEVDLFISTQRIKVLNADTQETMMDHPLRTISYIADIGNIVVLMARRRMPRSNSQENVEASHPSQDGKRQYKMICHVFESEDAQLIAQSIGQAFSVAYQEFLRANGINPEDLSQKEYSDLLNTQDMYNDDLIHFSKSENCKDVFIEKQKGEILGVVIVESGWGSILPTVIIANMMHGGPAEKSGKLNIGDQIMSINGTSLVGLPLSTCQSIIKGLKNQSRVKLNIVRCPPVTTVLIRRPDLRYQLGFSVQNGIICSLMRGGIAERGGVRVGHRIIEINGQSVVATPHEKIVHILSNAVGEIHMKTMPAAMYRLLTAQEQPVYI
SUMO E1/E2, sequence (Q9UBE0 whole entry): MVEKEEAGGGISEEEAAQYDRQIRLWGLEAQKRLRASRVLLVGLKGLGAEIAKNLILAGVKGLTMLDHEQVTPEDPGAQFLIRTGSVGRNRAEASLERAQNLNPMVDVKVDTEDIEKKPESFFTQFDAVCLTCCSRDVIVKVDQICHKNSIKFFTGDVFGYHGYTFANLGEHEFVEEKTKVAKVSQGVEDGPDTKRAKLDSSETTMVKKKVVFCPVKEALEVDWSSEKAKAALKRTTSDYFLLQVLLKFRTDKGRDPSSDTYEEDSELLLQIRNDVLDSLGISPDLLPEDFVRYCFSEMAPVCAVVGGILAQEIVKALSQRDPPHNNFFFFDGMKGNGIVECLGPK
SUMO E1/E2, sequence (Q9UBT2 whole entry): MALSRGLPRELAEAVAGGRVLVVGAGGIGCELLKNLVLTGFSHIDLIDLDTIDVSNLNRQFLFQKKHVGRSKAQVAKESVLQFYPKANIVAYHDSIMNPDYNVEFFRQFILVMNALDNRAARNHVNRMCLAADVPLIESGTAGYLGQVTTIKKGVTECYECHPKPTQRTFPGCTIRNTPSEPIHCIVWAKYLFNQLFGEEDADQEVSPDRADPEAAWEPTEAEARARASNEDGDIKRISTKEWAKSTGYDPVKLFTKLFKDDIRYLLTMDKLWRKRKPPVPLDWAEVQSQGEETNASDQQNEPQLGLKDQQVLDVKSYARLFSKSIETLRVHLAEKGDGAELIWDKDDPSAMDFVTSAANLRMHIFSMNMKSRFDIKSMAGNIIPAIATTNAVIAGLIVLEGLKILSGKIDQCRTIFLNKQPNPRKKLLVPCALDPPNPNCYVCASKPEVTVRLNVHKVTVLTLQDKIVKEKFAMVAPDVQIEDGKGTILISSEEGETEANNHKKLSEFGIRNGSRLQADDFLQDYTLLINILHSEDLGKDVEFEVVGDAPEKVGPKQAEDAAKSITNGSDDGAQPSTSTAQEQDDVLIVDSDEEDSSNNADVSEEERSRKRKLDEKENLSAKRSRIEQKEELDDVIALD
SUMO E1/E2, sequence (P63279 whole entry): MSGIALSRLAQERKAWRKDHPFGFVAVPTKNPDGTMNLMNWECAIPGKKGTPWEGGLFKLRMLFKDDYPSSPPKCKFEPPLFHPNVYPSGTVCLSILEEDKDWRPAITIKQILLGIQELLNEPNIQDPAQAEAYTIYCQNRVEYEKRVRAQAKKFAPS
Nonstructural protein 1, sequence (Q194T2 whole entry): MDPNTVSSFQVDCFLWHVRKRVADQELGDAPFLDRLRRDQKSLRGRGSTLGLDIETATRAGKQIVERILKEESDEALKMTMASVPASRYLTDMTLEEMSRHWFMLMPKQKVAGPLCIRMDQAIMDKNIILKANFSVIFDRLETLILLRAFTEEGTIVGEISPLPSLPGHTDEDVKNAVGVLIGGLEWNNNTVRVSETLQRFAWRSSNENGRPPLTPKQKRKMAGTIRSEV

On to `O=C(NCC1[C@H]2CN(CC3CCCC3)C[C@@H]12)c1cc(Cl)cc(Cl)c1` (stereo partly drawn), for which the EC50 in [1] is 3000 nM (active).

`O=C(COC(=O)c1cc(-c2ccco2)nc2ccccc12)NCc1ccc(Cl)cc1`: the IC50 in [2] is 7.73 µM (active) and 9.82 µM (active); in test [3] it was 10.4 µM (active) and > 56.8 µM (inactive); at SUMO E1/E2, 2.84 µM (active) and 4.46 µM (active).

As to `O=C(Nc1ccc(N2C(=O)[C@H]3[C@H](C2=O)[C@H]2C=C[C@@H]3C2)c(Cl)c1)c1ccccn1`, the EC50 in [4] is 787 nM (inactive); in [5], 1400 nM (inactive); in test [6] it was 11000 nM (inactive); in test [7], 514 nM (inactive); in [8], 2510 nM (active).

As to `Oc1cccc2ccc(Nc3ccccn3)nc12`, the IC50 in test [9] was > 50000 nM (not active); in test [11] it was 3030 nM (active); in test [14], 6800 nM (active); on Nonstructural protein 1, 2350 nM (active); in [15] it was 2350 nM (active). Further, the AC50 was 1180 nM (active) in the test on INS1, 15100 nM (active) in test [18] and 15500 nM (active) in test [20]. Also, the EC50 in test [10] was 4930 nM (inconclusive); in [12], 1230 nM (active); in test [13], 1550 nM (active); in [16], 1120 nM (active); in [17], 6000 nM (active); in test [19], 713 nM (active).
